According to the supplement of paper PMC11061612:

What was measured:
Test in all cases: combination Emax (second highest fraction inhibited in the dose matrix, 72 h); higher = more inhibition; extreme values may be limits of the assay
EW-18 (Ewing's Sarcoma) = tested on: EW-18 (Ewing's Sarcoma)
Procedure, shortened: (§1)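 Bliss excess equals the observed combination effect minus the expected value EA + EB − EA·EB, where EA and EB are the effects of each agent alone. Combination Emax is the second-highest inhibition within the matrix. Inhibition was scaled from CellTiter-Glo 2.0 luminescence, with 0 set by vehicle wells and 1 by blank wells, after 72 hours of two-drug dosing of cells plated in 1536-well plates.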

[1] = tested on: SCC-3 (B-Cell Non-Hodgkin's Lymphoma)
Procedure, shortened: as §1

NB7 (Neuroblastoma) = tested on: NB7 (Neuroblastoma)
Procedure, shortened: as §1

A704 (Kidney Carcinoma) = tested on: A704 (Kidney Carcinoma)
Procedure, shortened: as §1

[2] = tested on: NCI-H2405 (Lung Adenocarcinoma)
Procedure, shortened: as §1

[3] = tested on: MFE-319 (Endometrial Carcinoma)
Procedure, shortened: as §1

[4] = tested on: SNU-C1 (Colorectal Carcinoma)
Procedure, shortened: as §1

[5] = tested on: KINGS-1 (Low Grade Glioma)
Procedure, shortened: as §1

BT-20 (Breast Carcinoma) = tested on: BT-20 (Breast Carcinoma)
Procedure, shortened: as §1

[6] = tested on: SCC-9 (Oral Cavity Carcinoma)
Procedure, shortened: as §1

[7] = tested on: OCUB-M (Breast Carcinoma)
Procedure, shortened: as §1

[8] = tested on: BV-173 (Chronic Myelogenous Leukemia)
Procedure, shortened: as §1

[9] = tested on: OVISE (Ovarian Carcinoma)
Procedure, shortened: as §1

RPMI-7951 (Melanoma) = tested on: RPMI-7951 (Melanoma)
Procedure, shortened: as §1

Row | Structure (SMILES) | combination Emax (EW-18 (Ewing's Sarcoma)) | combination Emax [1] | combination Emax (NB7 (Neuroblastoma)) | combination Emax (A704 (Kidney Carcinoma)) | combination Emax [2] | combination Emax [3] | combination Emax [4] | combination Emax [5] | combination Emax (BT-20 (Breast Carcinoma)) | combination Emax [6] | combination Emax [7] | combination Emax [8] | combination Emax [9] | combination Emax (RPMI-7951 (Melanoma))
1 | CN(C)CCCOc1ccc(-c2ccc3ncc4c(c3c2)n(C2CCOCC2)c(=O)n4C)cn1 [AZD0156] + O=C(c1cc(Cc2n[nH]c(=O)c3ccccc23)ccc1F)N1CCN(C(=O)C2CC2)CC1 [Olaparib] (first compound max 3 µM, partner max 3 µM) | 0.61 | 0.687 | 0.297 | 0.247 | 0.256 | 0.193 | 0.226 | 0.176 | 0.157 | 0.262 | 0.273 | 0.764 | 0.306 | 0.264
2 | Cc1c2c(nn1C)CSCc1cc(n(C)n1)CSc1cc(c3ccccc3c1)OCCCc1c(C(=O)O)n(C)c3c-2c(Cl)ccc13 [AZD5991] + CC1(C)CCC(CN2CCN(c3ccc(C(=O)NS(=O)(=O)c4ccc(NCC5CCOCC5)c([N+](=O)[O-])c4)c(Oc4cnc5[nH]ccc5c4)c3)CC2)=C(c2ccc(Cl)cc2)C1 [Venetoclax] (first compound max 1 µM, 7x7, partner max 1 µM) | 0.919 | 0.358 | 0.513 | 0.344 | 0.175 | 0.881 | 0.574 | 0.266 | 0.889 | 0.256 | 0.996 | 0.95 | 0.442 | 0.903
3 | C=CCn1c(=O)c2cnc(Nc3ccc(N4CCN(C)CC4)cc3)nc2n1-c1cccc(C(C)(C)O)n1 [AZD1775] + C[C@@H]1COCCN1C2=NC(=NC(=C2)C3(CC3)[S@](=N)(=O)C)C4=C5C=CNC5=NC=C4 [AZD6738] (first compound max 1 µM, partner max 10 µM) | 0.66 | 1 | 0.934 | 0.57 | 0.355 | 0.825 | 0.624 | 0.533 | 0.718 | 0.434 | 0.799 | 0.988 | 0.777 | 0.951
4 | CN(CCO)CC[C@H](CSc1ccccc1)Nc1ccc(S(=O)(=O)NC(=O)c2ccc(N3CCC([C@@H](O)c4ccccc4-c4ccc(Cl)cc4)CC3)cc2)cc1S(=O)(=O)C(F)(F)F [AZD4320] + C1CN(CCC1(C(=O)N[C@@H](CCO)C2=CC=C(C=C2)Cl)N)C3=NC=NC4=C3C=CN4 [Capivasertib] (first compound max 1 µM, 7x7, partner max 3 µM) | 0.875 | 0.257 | 0.0214 | 0.392 | 0.224 | – | 0.775 | 0.49 | 0.84 | 0.21 | 1 | 0.962 | 0.89 | 0.54
5 | COc1nnc2ccc(N3CCC(c4ccc(OCCN5CCN(C)C(=O)[C@H]5C)cc4)CC3)nn12 [AZD5153] + Cc1c2c(nn1C)CSCc1cc(n(C)n1)CSc1cc(c3ccccc3c1)OCCCc1c(C(=O)O)n(C)c3c-2c(Cl)ccc13 [AZD5991] (first compound max 1 µM, 7x7, partner max 1 µM) | 0.938 | 0.997 | 0.875 | 0.545 | 0.36 | 0.985 | 0.637 | 0.186 | 0.787 | 0.601 | 1 | 0.936 | 0.633 | 0.825
6 | COc1cc2c(cc1OCCCCCOc1cc3c(cc1OC)C(=O)N1C=C(C)C[C@H]1C=N3)N=C[C@@H]1CC(C)=CN1C2=O [SG3199] + O=C(c1cc(Cc2n[nH]c(=O)c3ccccc23)ccc1F)N1CCN(C(=O)C2CC2)CC1 [Olaparib] (first compound max 0.001 µM, 7x7, partner max 10 µM) | 0.0839 | 0.437 | 0.166 | 0.202 | 0.081 | 0.12 | 0.0546 | 0.147 | 0.154 | 0.0776 | 0.232 | 0.932 | 0.0965 | 0.203
7 | C=CCn1c(=O)c2cnc(Nc3ccc(N4CCN(C)CC4)cc3)nc2n1-c1cccc(C(C)(C)O)n1 [AZD1775] + O=C(c1cc(Cc2n[nH]c(=O)c3ccccc23)ccc1F)N1CCN(C(=O)C2CC2)CC1 [Olaparib] (first compound max 1 µM, partner max 10 µM) | 0.522 | 0.968 | 0.632 | 0.462 | 0.192 | 0.619 | 0.313 | 0.381 | 0.518 | 0.265 | 0.504 | 0.96 | 0.619 | 0.766
8 | Cc1cc2ncnn2cc1Nc1ncc2c(n1)n(C1CCOCC1)c(=O)n2C [AZD7648] + C[C@@H]1COCCN1C2=NC(=NC(=C2)C3(CC3)[S@](=N)(=O)C)C4=C5C=CNC5=NC=C4 [AZD6738] (first compound max 10 µM, 7x7, partner max 10 µM) | 0.636 | 0.857 | 0.572 | 0.395 | 0.241 | 0.726 | 0.38 | 0.283 | 0.479 | 0.353 | 0.49 | 0.97 | 0.666 | 0.912
9 | C[C@@H](c1ccc2nccn2c1)n1nnc2ncc(-c3cnn(C)c3)nc21 [Savolitinib] + CN(CC[C@H](CSC1=CC=CC=C1)NC2=C(C=C(C=C2)S(=O)(=O)NC(=O)C3=CC=C(C=C3)N4CCC(CC4)[C@H](C5=CC=CC=C5C6=CC=C(C=C6)Cl)O)S(=O)(=O)C(F)(F)F)CCO [AZD4320] (first compound max 1 µM, 7x7, partner max 1 µM) | 0.891 | 0.0987 | – | 0.449 | 0.271 | 0.191 | – | – | 0.418 | – | – | 0.954 | 0.7 | 0.271
10 | C=CCn1c(=O)c2cnc(Nc3ccc(N4CCN(C)CC4)cc3)nc2n1-c1cccc(C(C)(C)O)n1 [AZD1775] + C1CN(CCC1(C(=O)N[C@@H](CCO)C2=CC=C(C=C2)Cl)N)C3=NC=NC4=C3C=CN4 [Capivasertib] (first compound max 3 µM, partner max 3 µM) | 0.859 | 0.977 | 0.748 | 0.438 | 0.572 | 0.858 | 0.568 | 0.473 | 0.69 | 0.638 | 0.955 | – | 0.651 | 0.856
11 | CS(=O)(=O)CCNCc1ccc(-c2ccc3ncnc(Nc4ccc(OCc5cccc(F)c5)c(Cl)c4)c3c2)o1 [Lapatinib] + NC1(c2ccc(-c3nc4ccn5c(=O)[nH]nc5c4cc3-c3ccccc3)cc2)CCC1 [MK-2206] (first compound max 10 µM, 7x7, partner max 10 µM) | – | – | 0.821 | – | 0.113 | 0.946 | 0.631 | 0.83 | – | 0.972 | 1 | – | 0.928 | –
12 | Cc1c2c(nn1C)CSCc1cc(n(C)n1)CSc1cc(c3ccccc3c1)OCCCc1c(C(=O)O)n(C)c3c-2c(Cl)ccc13 [AZD5991] + C[C@@H]1COCCN1C2=NC(=NC(=C2)C3(CC3)[S@](=N)(=O)C)C4=C5C=CNC5=NC=C4 [AZD6738] (first compound max 1 µM, 7x7, partner max 10 µM) | 0.928 | 0.957 | 0.918 | 0.487 | 0.353 | 0.932 | 0.333 | 0.198 | – | 0.331 | 1 | 0.965 | 0.615 | 0.98
13 | CC(=O)c1c(C)c2cnc(Nc3ccc(N4CCNCC4)cn3)nc2n(C2CCCC2)c1=O [Palbociclib] + CN(CC[C@H](CSC1=CC=CC=C1)NC2=C(C=C(C=C2)S(=O)(=O)NC(=O)C3=CC=C(C=C3)N4CCC(CC4)[C@H](C5=CC=CC=C5C6=CC=C(C=C6)Cl)O)S(=O)(=O)C(F)(F)F)CCO [AZD4320] (first compound max 10 µM, 7x7, partner max 1 µM) | 0.903 | 0.392 | – | 0.935 | 0.351 | 0.31 | – | – | 0.546 | – | – | 0.958 | 0.889 | 0.678
14 | COc1nnc2ccc(N3CCC(c4ccc(OCCN5CCN(C)C(=O)[C@H]5C)cc4)CC3)nn12 [AZD5153] + CN(CC[C@H](CSC1=CC=CC=C1)NC2=C(C=C(C=C2)S(=O)(=O)NC(=O)C3=CC=C(C=C3)N4CCC(CC4)[C@H](C5=CC=CC=C5C6=CC=C(C=C6)Cl)O)S(=O)(=O)C(F)(F)F)CCO [AZD4320] (first compound max 1 µM, 7x7, partner max 1 µM) | 0.929 | 0.93 | – | 0.768 | 0.443 | 0.476 | – | – | 0.293 | – | – | 0.957 | 0.9 | 0.647
